Laboratory results reported in patent publication US5164296A, “Assay methods involving ouabain” (priority 1990, dated 1992).
Ends that are not written are not given here.

Target: T1, (Na^+ +K^+)ATPase (Canis lupus familiaris, UniProt P50997)
T1 construct: (Na^+ +K^+)ATPase was purified from the outer medulla of dog kidney; from tissue; host or cells: dog kidney outer medulla, purified membrane enzyme
Assay: Competition for ^3 H-ouabain binding to purified (Na^+ +K^+)ATPase
Set-up: species or system dog
Conditions: type II conditions
Experimental: (§1) More specifically, (Na^+ +K^+)ATPase was purified from the outer medulla of dog kidney using the angle rotor procedure (Jorgensen, P.L., Biochim. Biophys. Acta, 356:36-52 (1974)) and stored frozen at -60° C. at 1.0 mg/ml in 25 mM imidazole-HCl (pH 7.5) and 1.0 mM EDTA, in small aliquots. (Na^+ +K^+)ATPase activity was determined at 37° C. from rate measurements in 1.0 ml of coupled optical assay mixture comprising 20 mM KCl, 100 mM NaCl, 4.5 mM MgSO4, 5.0 mM EGTA, 3.0 mM ATP-Na2, 1.2 mM phosphoenol-pyruvate-tricyclohexylammonium, 0.3 mM NADH, 100 mM TES-Tris (ph 7.4), 5.0 units of lactate dehydrogenase, and 5.0 units of pyruvate kinase (Hamlyn, J.M. et al, Nature, 300:650-652 (1982)). (Na^+ +K^+)ATPase activity was 99% ouabain-inhibitable with activities of 10-18 μmol/min/mg of membrane protein. Maximally effective concentrations of digitalis-like activity had no effect on the enzymatic components of the coupled optical assay as determined by inspection of rates in response to addition of 20-50 μM ADP. The maximal capacity of the coupled optical assay was at least 500-2000 fold greater than the typical maximal hydrolytic rate of the (Na^+ +K^+)ATPase and was not rate limiting under any assay condition described herein.
Competition for ^3 H-ouabain (Amersham Corp. or DuPont-New England Nuclear) binding was carried out in 670 μl of binding buffer comprising, in final concentrations, 10 mM TES-Tris (pH 7.4), 0.5 mM EDTA, 5.0 mM MgCl2 and 5.0 mM Na2 HPO4 (hereinafter "binding buffer") and 50 nM ouabain containing ^3 H-ouabain tracer, and including the unknown sample. Binding was initiated by addition of 0.1-2 μg of purified (Na^+ +K^+)ATPase and the reaction performed for 2 hr at 37° C. […] Trapped ^3 H-ouabain was determined by scintillation counting, following 12 hr of soaking the filters in 4.0 ml of Beckman Ready Protein ™ scintillation cocktail (Beckman, Palo Alto, Calif.). […] All binding data were corrected for quench, and specific binding was expressed as pmol/mg of enzyme protein. […]

| Molecule | ^3 H-ouabain bound (typical values) |
| --- | --- |
| C[C@@H]1O[C@@H](O[C@H]2C[C@@H](O)[C@]3(CO)[C@H]4[C@H](O)C[C@]5(C)[C@@H](C6=CC(=O)OC6)CC[C@]5(O)[C@@H]4CC[C@]3(O)C2)[C@H](O)[C@H](O)[C@H]1O [^3 H-ouabain] | 75-85 pmol/mg of enzyme protein |

Target: T1, (Na^+ +K^+)ATPase
Assay: Inhibition of (Na^+ +K^+)ATPase activity (coupled optical assay)
Assay type: biochemical, dog
Conditions: purified dog kidney enzyme, 37° C.
Experimental: as §1
The inhibition of (Na^+ +K^+)ATPase was carried out as described above.

| Molecule | (Na^+ +K^+)ATPase activity ouabain-inhibitable [%] |
| --- | --- |
| C[C@@H]1O[C@@H](O[C@H]2C[C@@H](O)[C@]3(CO)[C@H]4[C@H](O)C[C@]5(C)[C@@H](C6=CC(=O)OC6)CC[C@]5(O)[C@@H]4CC[C@]3(O)C2)[C@H](O)[C@H](O)[C@H]1O [ouabain] | 99 |

System: left atria from guinea pigs
Assay: Inotropic properties in left atria from guinea pigs
Set-up: species or system guinea pig
Conditions: Cavia porcellus, read-out: inotropic response
Experimental: Atria were incubated at 37° C. in phosphate buffered saline comprising 130 mM NaCl, 5.4 mM KCl, 1.8 mM MgCl2, 0.4 mM NaH2 PO4, 19 mM NaHCO3 and 5.4 g of glucose (pH 7.3-7.4), and gassed with 95% O2 /5% CO2. Tissues were stimulated at 1 Hz with twice threshold square pulses (0.8 to 1.0 V) of 0.7 to 1.2 msec duration. Resting tension was optimized for maximum isometric force generation. Control records were obtained once the phasic force was stabilized. […] For comparison, 200 nM plant ouabain evoked an inotropic response of 311±41% (N=4 experiments) which returned to normal with a half-time of approximately 5 min upon washout.

| Molecule | activation at 0.2 µM [%] |
| --- | --- |
| C[C@@H]1O[C@@H](O[C@H]2C[C@@H](O)[C@]3(CO)[C@H]4[C@H](O)C[C@]5(C)[C@@H](C6=CC(=O)OC6)CC[C@]5(O)[C@@H]4CC[C@]3(O)C2)[C@H](O)[C@H](O)[C@H]1O [ouabain] | 311 ± 41 |

Same assay, conditions: upon washout

| Molecule | apparent half-time for washout of the inotropic response |
| --- | --- |
| C[C@@H]1O[C@@H](O[C@H]2C[C@@H](O)[C@]3(CO)[C@H]4[C@H](O)C[C@]5(C)[C@@H](C6=CC(=O)OC6)CC[C@]5(O)[C@@H]4CC[C@]3(O)C2)[C@H](O)[C@H](O)[C@H]1O [ouabain] | approximately 5 min |

System: rings of aorta from guinea pigs
Assay: Vasoactive properties in rings of aorta from guinea pigs
Set-up: species or system guinea pig
Conditions: 170 nM human ouabain; 200 nM plant ouabain
Experimental: The aortic rings were incubated at 37° C. in phosphate buffered saline. The rings were submaximally contracted for 3 to 7 min, every 35 min, with 0.2 or 1.0 μM histamine. […] The apparent half-time for washout of the augmented tension response in the presence of plant ouabain was also much greater than 60 min.

| Molecule | effect on baseline tension |
| --- | --- |
| C[C@@H]1O[C@@H](O[C@H]2C[C@@H](O)[C@]3(CO)[C@H]4[C@H](O)C[C@]5(C)[C@@H](C6=CC(=O)OC6)CC[C@]5(O)[C@@H]4CC[C@]3(O)C2)[C@H](O)[C@H](O)[C@H]1O [ouabain] | did not affect baseline tension |

Same assay, conditions: Cavia porcellus, read-out: histamine-evoked tension, % of control

| Molecule | activity at 0.2 µM [%] |
| --- | --- |
| C[C@@H]1O[C@@H](O[C@H]2C[C@@H](O)[C@]3(CO)[C@H]4[C@H](O)C[C@]5(C)[C@@H](C6=CC(=O)OC6)CC[C@]5(O)[C@@H]4CC[C@]3(O)C2)[C@H](O)[C@H](O)[C@H]1O [ouabain] | 146 ± 16 |

Same assay, conditions: upon washout

| Molecule | apparent half-time for washout of the augmented tension response |
| --- | --- |
| C[C@@H]1O[C@@H](O[C@H]2C[C@@H](O)[C@]3(CO)[C@H]4[C@H](O)C[C@]5(C)[C@@H](C6=CC(=O)OC6)CC[C@]5(O)[C@@H]4CC[C@]3(O)C2)[C@H](O)[C@H](O)[C@H]1O [ouabain] | greater than 60 min |

System: polyclonal anti-ouabain antisera
Assay: not given
Assay type: binding, rabbit
Conditions: Table 1, polyclonal anti-ouabain antisera
Experimental: Polyclonal anti-ouabain antisera was obtained from the immunized rabbits by collecting blood from the central ear artery, allowing the blood to clot for 2 hr at room temperature, centrifuging the clotted blood at 1000 ×g for 10 min, and removing the polyclonal anti-ouabain antisera.
The polyclonal antisera was extensively characterized by testing the degree to which it cross-reacted with (1) other substances known to be present in human body fluids and tissues, and (2) cardiotonic steroids closely related to ouabain but not known to be present in human body fluids and tissues.

| Molecule | cross-reactivity (relative to ouabain) |
| --- | --- |
| C[C@]12CCC(=O)C=C1CC[C@@H]1[C@@H]2[C@@H](O)C[C@]2(C=O)[C@@H](C(=O)CO)CC[C@@H]12 [Aldosterone] | 0.012% |
| NC(=O)CC[C@@H]1NC(=O)[C@H](Cc2ccccc2)NC(=O)[C@H](Cc2ccc(O)cc2)NC(=O)[C@@H](N)CSSC[C@@H](C(=O)N2CCC[C@H]2C(=O)N[C@@H](CCCN=C(N)N)C(=O)NCC(N)=O)NC(=O)[C@H](CC(N)=O)NC1=O [Arginine vasopressin] | None detected |
| CC(=O)O[C@]1(C(C)=O)CC[C@H]2[C@@H]3C=C(Cl)C4=CC(=O)CC[C@]4(C)[C@H]3CC[C@@]21C [Chlormadinone acetate] | None detected |
| CC(C)CCC[C@@H](C)[C@H]1CC[C@H]2[C@@H]3CC=C4C[C@@H](O)CC[C@]4(C)[C@H]3CC[C@]12C [Cholesterol] | None detected |
| O=C(O)CC(O)(CC(=O)O)C(=O)O [Citrate] | None detected |
| C[C@]12C[C@H](O)[C@H]3[C@@H](CCC4=CC(=O)CC[C@@]43C)[C@@H]1CC[C@@H]2C(=O)CO [Corticosterone] | 0.0035% |
| C[C@]12CC[C@H](OS(=O)(=O)O)CC1=CC[C@@H]1[C@@H]2CC[C@]2(C)C(=O)CC[C@@H]12 [Dehydroisoandrosterone-3-sulfate] | None detected |
| C[C@]12CC[C@H](O)CC1=CC[C@@H]1[C@@H]2CC[C@]2(C)C(=O)CC[C@@H]12 [Dehydroisoandrosterone] | None detected |
| C[C@]12CC[C@H]3[C@@H](CCC4=CC(=O)CC[C@@]43C)[C@@H]1CC[C@@H]2C(=O)CO [Deoxycorticosterone] | 0.0046% |
| C[C@H]1O[C@@H](O[C@H]2[C@@H](O)C[C@H](O[C@H]3[C@@H](O)C[C@H](O[C@H]4CC[C@@]5(C)[C@H](CC[C@@H]6[C@@H]5CC[C@]5(C)[C@@H](C7=CC(=O)OC7)CC[C@]65O)C4)O[C@@H]3C)O[C@@H]2C)C[C@H](O)[C@@H]1O [Digitoxin] | 28% |
| C[C@H]1O[C@@H](O[C@H]2[C@@H](O)C[C@H](O[C@H]3[C@@H](O)C[C@H](O[C@H]4CC[C@@]5(C)[C@H](CC[C@@H]6[C@@H]5C[C@@H](O)[C@]5(C)[C@@H](C7=CC(=O)OC7)CC[C@]65O)C4)O[C@@H]3C)O[C@@H]2C)C[C@H](O)[C@@H]1O [Digoxin] | 5.2% |
| C[C@@H]1O[C@@H](O[C@H]2C[C@@H](O)[C@]3(CO)[C@H]4[C@H](O)C[C@]5(C)[C@@H](C6COC(=O)C6)CC[C@]5(O)[C@@H]4CC[C@]3(O)C2)[C@H](O)[C@H](O)[C@H]1O (stereo partly drawn) [Dihydroouabain] | 0.16% |
| C[C@]12CCC(=O)C=C1CC[C@@H]1[C@@H]2[C@@H](O)C[C@@]2(C)[C@H]1CC[C@]2(O)C(=O)CO [Hydrocortisone] | None detected |
| CC(=O)O[C@H]1C[C@H](O[C@H]2[C@@H](O)C[C@H](O[C@H]3[C@@H](O)C[C@H](O[C@H]4CC[C@@]5(C)[C@H](CC[C@@H]6[C@@H]5C[C@@H](O)[C@]5(C)[C@@H](C7=CC(=O)OC7)CC[C@]65O)C4)O[C@@H]3C)O[C@@H]2C)O[C@H](C)[C@H]1O[C@@H]1O[C@H](CO)[C@@H](O)[C@H](O)[C@H]1O [Lanatoside C] | 2.49% |
| C[C@]12C[C@@H](O)[C@H]3[C@@H](CC[C@]4(O)C[C@@H](O)C[C@@H](O)[C@]34CO)[C@@]1(O)CC[C@@H]2C1=CC(=O)OC1 [Ouabagenin] | 40% |
| CC(=O)[C@H]1CC[C@H]2[C@@H]3CCC4=CC(=O)CC[C@]4(C)[C@H]3CC[C@]12C [Progesterone] | 0.0011% |
| C[C@]12CC[C@H]3[C@@H](CC[C@]4(O)C[C@@H](O)CC[C@]34C=O)[C@@]1(O)CC[C@@H]2C1=CC(=O)OC1 [Strophanthidin] | 66% |
| C[C@]12CC[C@@H]3c4ccc(O)cc4CC[C@H]3[C@@H]1CC[C@@H]2O [β-estradiol] | None detected |
| Angiotensin I (DRVYIHPFHL; Angiotensin-1; UniProt P01019 25-34, looked up) | None detected |
| Angiotensin II | None detected |
| Atrial natriuretic peptide (SLRRSSCFGGRMDRIGAQSGLGCNSFRY; ends and bridges not checked; cysteine pairing not given here; UniProt P01160 124-151, looked up) | None detected |
| Renin (protein, UniProt P00797 67-406, looked up) Renin: LTLGNTTSSVILTNYMDTQYYGEIGIGTPPQTFKVVFDTGSSNVWVPSSKCSRLYTACVYHKLFDASDSSSYKHNGTELTLRYSTGTVSGFLSQDIITVGGITVTQMFGEVTEMPALPFMLAEFDGVVGMGFIEQAIGRVTPIFDNIISQGVLKEDVFSFYYNRDSENSQSLGGQIVLGGSDPQHYEGNFHYINLIKTGVWQIQMKGVSVGSSTLLCEDGCLALVDTGASYISGSTSSIEKLMEALGAKKRLFDYVVKCNEGPTLPDISFHLGGKEYTLTSADYVFQESYSSKKLCTLAIHAMDIPPPTGPTWALGATFIRKFYTEFDRRNNRIGFALAR | None detected |

Same assay, conditions: Table 1, printed without unit

| Molecule | cross-reactivity (relative to ouabain) |
| --- | --- |
| C[C@]12CC[C@H]3[C@@H](CCC4=CC(=O)CC[C@@]43C)[C@@H]1CC[C@@H]2O [Testosterone] | 0.0042 |
